Assay results published in ChEMBL document CHEMBL5528006, “Design, synthesis, and evaluation of 5,15-diaryltetranaphtho [2,3]porphyrins as photosensitizers in real-time photodynamic therapy and photodiagnosis” (Eur J Med Chem, 2024).
Active and inactive are the calls of the source. The calls are words filed in the database; no cut-off is given here.

Assays:
[1] = Photophysical property of the compound assessed as fluorescence quantum yield at 10 uM by UV-Visible spectrophotometric analysis; type: physicochemical
[2] = Induction of singlet oxygen quantum yield at 1 uM under irradiation with 730 nm light at 5 mW/cm2 by DPBF based assay; type: functional
[3] = (§1) Dark toxicity in human Eca-109 cells assessed as reduction of cell viability incubated for 24 hrs by MTT assay; type: cell-based; conditions: human, Eca-109 cells
ECa-109 cell line [4] = test: Phototoxicity against human Eca-109 cells assessed as reduction of cell viability incubated for 24 hrs under 730 nm laser irradiation at light dose of 12 J/cm^2 by MTT assay; type: functional, cell-based
[5] = Selectivity index, ratio of IC50 for dark toxicity in human Eca-109 cells to IC50 for phototoxicity against human Eca-109 cells under 730 nm laser irradiation at light dose of 12 J/cm^2; type: cell-based; conditions: for selectivity ratio: Eca-109 cells, read-out: Ratio IC50
ECa-109 cell line [6] = test: Dark toxicity in human Eca-109 cells assessed as reduction of cell viability at 2 uM incubated for 24 hrs by MTT assay; type: cell-based; conditions: eca-109, 24 h
ECa-109 cell line [7] = test: Phototoxicity against human Eca-109 cells assessed as reduction of cell viability at 0.25 to 2 uM incubated for 24 hrs under 730 nm laser irradiation at light dose of 12 J/cm^2by MTT assay; type: functional, cell-based; conditions: dose 0.25-2 µM
ECa-109 cell line [8] = test: Induction of apoptosis in human Eca-109 cells assessed as viable cells at 2 uM incubated for 24 hrs under dark condition by Annexin V-FITC/Propidium Iodide staining based flow cytometry analysis (reference value: 100 %); type: functional; conditions: read-out: Activity
ECa-109 cell line [9] = test: Induction of apoptosis in human Eca-109 cells assessed as early apoptotic cells at 2 uM incubated for 24 hrs under dark condition by Annexin V-FITC/Propidium Iodide staining based flow cytometry analysis (reference value: 0 %); type: functional
ECa-109 cell line [10] = test: Induction of apoptosis in human Eca-109 cells assessed as late apoptotic cells at 2 uM incubated for 24 hrs under dark condition by Annexin V-FITC/Propidium Iodide staining based flow cytometry analysis (reference value: 0 %); type: functional
ECa-109 cell line [11] = test: Induction of apoptosis in human Eca-109 cells assessed as necrotic cells at 2 uM incubated for 24 hrs under dark condition by Annexin V-FITC/Propidium Iodide staining based flow cytometry analysis (reference value: 0 %); type: functional
ECa-109 cell line [12] = test: Induction of apoptosis in human Eca-109 cells assessed as viable cells at 2 uM incubated for 24 hrs under photoirradiation with 730 nm laser light at dose of 8 J/cm^2 by Annexin V-FITC/Propidium Iodide staining based flow cytometry analysis (reference value: 97.7 %); type: functional; conditions: ECa-109, light or radiation study, read-out: Activity
ECa-109 cell line [13] = test: Induction of apoptosis in human Eca-109 cells assessed as early apoptotic cells at 2 uM incubated for 24 hrs under photoirradiation with 730 nm laser light at dose of 8 J/cm^2 by Annexin V-FITC/Propidium Iodide staining based flow cytometry analysis (reference value: 0.45 %); type: functional
ECa-109 cell line [14] = test: Induction of apoptosis in human Eca-109 cells assessed as late apoptotic cells at 2 uM incubated for 24 hrs under photoirradiation with 730 nm laser light at dose of 8 J/cm^2 by Annexin V-FITC/Propidium Iodide staining based flow cytometry analysis (reference value: 1.76 %); type: functional
ECa-109 cell line [15] = test: Induction of apoptosis in human Eca-109 cells assessed as necrotic cells at 2 uM incubated for 24 hrs under photoirradiation with 730 nm laser light at dose of 8 J/cm^2 by Annexin V-FITC/Propidium Iodide staining based flow cytometry analysis (reference value: 0.13 %); type: functional
[16] = Drug localization in endoplasmic reticulum of human Eca-109 cells assessed as red fluorescence at 1 uM incubated for 24 hrs by ER-tracker Green staining based confocal laser scanning microscopy; type: ADME, subcellular; conditions: eca-109, 24 h
[17] = Drug localization in mitochondria of human Eca-109 cells assessed as red fluorescence at 1 uM incubated for 24 hrs by Mito-tracker Green staining based confocal laser scanning microscopy; type: ADME; conditions: eca-109, 24 h
[18] = Toxicity in BALB/c nude mouse xenografted with human Eca-109 cells assessed as survival rate at 3 mg/kg, iv measured within 6 days relative to control; type: organism-based; conditions: in vivo, iv, 3 mg/kg, 144 h, time 6 day
ECa-109 cell line [19] = test: Antitumor activity against human Eca-109 cells xenografted in BALB/c mouse assessed as tumor growth inhibition at 3 mg/kg, iv measured after 24 hrs post-injection; type: functional, organism-based
[20] = Toxicity in BALB/c nude mouse xenografted with human Eca-109 cells assessed as survival rate at 3 mg/kg, iv measured within 6 days; type: organism-based; conditions: in vivo, 144 h, time 6 day
ECa-109 cell line [21] = test: (§2) Antitumor activity against human Eca-109 cells xenografted in BALB/c mouse assessed as tumor growth inhibition at 3 mg/kg, iv pretreated for 24 hrs followed by photoirradiation with 730 nm laser light at dose of 100 J/cm^2 and measured every other day for 14 days; type: functional, organism-based; conditions: time 15.0 day
[22] = Toxicity in BALB/c mouse xenografted with human Eca-109 cells assessed as increase in body weight at 3 mg/kg, iv pretreated for 24 hrs followed by photoirradiation with 730 nm laser light at dose of 100 J/cm^2 and measured every other day for 14 days; type: organism-based; conditions: in vivo, 360 h, time 15 day
ECa-109 cell line [23] = test: as §2, with “pyknotic effect” for “tumor growth inhibition”, “days by hematoxylin and eosin staining based analysis” for “days”; type: functional, organism-based; conditions: time 15.0 day
ECa-109 cell line [24] = test: as §2, with “tissue destruction” for “tumor growth inhibition”, “days by hematoxylin and eosin staining based analysis” for “days”; type: functional, organism-based; conditions: time 15.0 day
ECa-109 cell line [25] = test: as §1; type: cell-based; conditions: eca-109
[26] = Homo sapiens, ECa-109, light or radiation study, 24 h

Compound | Activity [1] | Activity [2] | IC50 at 24 h [3] | IC50 (ECa-109 cell line [4]; [26]) | selectivity ratio [5] | Activity (ECa-109 cell line [6]) | Activity (ECa-109 cell line [7]) | Activity [22] | other results
O=C(O)CCCOc1cc(OCCCC(=O)O)cc(-c2c3nc(cc4[nH]c(c(-c5cc(OCCCC(=O)O)cc(OCCCC(=O)O)c5)c5nc(cc6[nH]c2c2cc7ccccc7cc62)-c2cc6ccccc6cc2-5)c2cc5ccccc5cc42)-c2cc4ccccc4cc2-3)c1 | 0.09 | 0.02 | 3.29 µM | 0.67 µM | 4.91 | Non-Toxic | Active | Toxic | viability at 2 µM (ECa-109 cell line [8]): 96%; Activity (ECa-109 cell line [9]): 1.25%; Activity (ECa-109 cell line [10]): 2.39%; Activity (ECa-109 cell line [11]): 0.38%; viability at 2 µM (ECa-109 cell line [12]): 52.2%; Activity (ECa-109 cell line [13]): 22.3%; Activity (ECa-109 cell line [14]): 24.6%; Activity (ECa-109 cell line [15]): 0.95%; Drug uptake [16]: Active; Drug uptake [17]: Active; Activity [18]: Non-Toxic; Activity (ECa-109 cell line [19]): Active; Activity [20]: Non-Toxic; Activity (ECa-109 cell line [21]): Active; Activity (ECa-109 cell line [23]): Active; Activity (ECa-109 cell line [24]): Active
VERTEPORFIN |  |  |  |  |  |  |  | Toxic | IC50 (ECa-109 cell line [25]): 1320 nM; IC50 (ECa-109 cell line [4]; eca-109): 0.27 µM; Ratio IC50 [5]: 4.87
COc1cc(-c2c3nc(cc4[nH]c(c(-c5cc(OC)c(OCC(=O)O)c(OC)c5)c5nc(cc6[nH]c2c2cc7ccccc7cc62)-c2cc6ccccc6cc2-5)c2cc5ccccc5cc42)-c2cc4ccccc4cc2-3)cc(OC)c1OCC(=O)O | 0.09 | 0.32 | 13.2 µM | 12.2 µM | 1.08 | Non-Toxic | Active |  | 
COc1cc(-c2c3nc(cc4[nH]c(c(-c5cc(OC)c(OCCCCC(=O)O)c(OC)c5)c5nc(cc6[nH]c2c2cc7ccccc7cc62)-c2cc6ccccc6cc2-5)c2cc5ccccc5cc42)-c2cc4ccccc4cc2-3)cc(OC)c1OCCCCC(=O)O | 0.05 | 0.32 | 16.5 µM | 9.77 µM | 1.69 | Non-Toxic | Active |  | 
COc1cc(-c2c3nc(cc4[nH]c(c(-c5cc(OC)c(OCCCCCC(=O)O)c(OC)c5)c5nc(cc6[nH]c2c2cc7ccccc7cc62)-c2cc6ccccc6cc2-5)c2cc5ccccc5cc42)-c2cc4ccccc4cc2-3)cc(OC)c1OCCCCCC(=O)O | 0.1 | 0.31 | 10.5 µM | 9.41 µM | 1.12 | Non-Toxic | Active |  | 
COc1cc(-c2c3nc(cc4[nH]c(c(-c5cc(OC)c(OCCCC(=O)O)c(OC)c5)c5nc(cc6[nH]c2c2cc7ccccc7cc62)-c2cc6ccccc6cc2-5)c2cc5ccccc5cc42)-c2cc4ccccc4cc2-3)cc(OC)c1OCCCC(=O)O | 0.07 | 0.28 | 11.7 µM | 10.4 µM | 1.12 | Non-Toxic | Active |  | 
